Patent publication US20060110456A1, “Method for biocidal and/or biostatic treatment and compositions therefor” (NATIONAL UNIVERSITY OF SINGAPORE, priority 2004, published 2006)
Entries after “also recorded” stand apart in the source; their conditions may differ. Structures can show the parent of a compound that is named as a salt.

Experiments:
[1] = tested on: marine bacteria (26 strains); test: Disk inhibition assay; type: cell-based, marine bacteria isolated from Singapore fouling communities
Method in brief: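 Tablets or capsule powders suspended in sterile water at 2 mg ml^−1 and loaded onto disks; antibiotic discs (Amp, Ery, Str, Tet) served as comparison. Disks placed on swabbed lawns on Marine Agar, incubated overnight in the dark at 30° C. Zone of clearing diameter measured by calipers; three replicates on three occasions.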

barnacle nauplii = test: Toxicity of drugs under different light conditions and over time (stability in seawater); type: in vivo, Balanus amphitrite; conditions: 25 ug ml^−1 seawater suspension
Procedure: Preliminary experiments were carried out to examine the chemical stability of the drugs. 25 ug ml^−1 seawater suspensions of the drugs were prepared, in 3 replicates per condition, 3 replicate tubes containing 15 ml per test tube per prepared for each treatment type. The treatments consisted of: • i. Dark condition: tubes were wrapped in aluminium foil and kept in the dark at all times • ii. 12L:12D condition, where the tubes were subject incubated in a plant growth chamber with light regime of 12 hours light and 12 hours dark. • iii. UV treated tubes were subject to UV for half an hour. […] Sets (1) & (2) were tested at week 0, 1, 2 and after 4 weeks. “UV” set is only assayed after UV treatment. […] Effect of UV

[2] = tested on: biofilm bacteria (strains 4, 9, 14, 20, 27, 28); test: Effect of pharmaceuticals on adhesion of bacteria to plastic / biofilm formation on NTC and TC plates; type: cell-based, marine bacteria isolated from Singapore fouling communities
Procedure: Commercial forms of pharmaceuticals were used as previously described. […] These samples were sonicated for at least 1 min and these fine suspensions were used as initial stock solutions.
For studies of bacterial adhesion, the pharmaceuticals were first sterilized by soaking in absolute alcohol (Merck) for half an hour. Ethanol was removed by air-drying with air passed through 0.25 μm pore size syringe filter (Sartorius, Germany). Stock solutions were concentrations of 100 μg ml−1 in SDI.
The effect of pharmaceuticals on bacterial adhesion was analyzed using a modified microplate method adapted from Shea and Williamson (1990). This method employs a combination of staining attached bacteria with crystal violet, releasing the stain with sodium desoxycholate, and measuring the resulting absorbance of the crystal violet.
Detailed results for six selected strains are presented here: strains 4, 9, 14, 20, 27, 28. The bacterial strains were grown in Marine Broth (Pronadisa, Spain) overnight, in the dark, at 28° C. on a rotary shaker (150 rpm) in 5 ml centrifuge tubes (Falcon). Cells were harvested by centrifugation (1500×g, 10 min) and resuspended in sterile seawater (SSW). SSW was prepared by filtering seawater through a 0.2 μm pore size filter (Sartorius) followed by autoclaving. The cells were centrifuged and resuspended once more in SSW. The concentration of resuspended cells was adjusted to A600=1.0 using a spectrophotometer (Beckman DU530, USA).
Flat bottom 96 well polystyrene (hydrophobic, Falcon 351172) (=NTC) and tissue-culture treated polystyrene (hydrophilic, Falcon 353072) (=TC) microplates were used in the analyses. Each test was performed in triplicate. Two sets of experiments were conducted. […] For the control and blank wells, 25 ul of SDI were added. For wells containing pharmaceuticals, 25 ul of the respective pharmaceutical at a concentration of 100 ug ml−1 were added. This was immediately followed by the addition of 75 ul of bacterial suspension. To blanks were added 75 ul of SSW.
The bacterial cells in suspension were allowed to attach for 2 h at 28° C. Unattached cells were removed by aspiration using a plate washer (Tecan, Austria) and wells were rinsed three times with 200 ul of SSW each time. The attached cells were stained with 200 ul of crystal violet solution (0.1% w/v in deionized water) in each well for 5 min. After removing the stain using the plate washer, the wells were rinsed twice with 300 ul of SDI each time. Sodium desoxycholate (200 ul) solution (2% w/v in deionized water) was added to each well to extract the crystal violet from the attached stained cells for 10 min. The absorbance of the crystal violet was read at 590 nm using a microplate reader (Sunrise, Tecan, Austria).
Results of the adhesion assay were obtained by the difference in absorbance readings between wells containing bacterial cells and the mean of absorbance of those containing the SSW only. The effect of the pharmaceuticals on bacterial adhesion was determined by the examining the differences in absorbance between the wells containing the pharmaceuticals+bacteria and the bacteria. The significance was compared using T-test.

[3] = crude rank, best (1) to worst (8)

## CN1CCN(CCCN2c3ccccc3Sc3ccc(C(F)(F)F)cc32)CC1 [TFZ, Trifluoperazine hydrochloride]
[1]; 25 μg per disc
  Number of strains inhibited out of 26 strains: 22
[1]; 50 μg per disc
  Strains showing no inhibition (of 26): 2
[1]; 25 or 50 μg per disc, in words
  Antibiotic activity against marine bacteria: strongest activity
[1]; [3]
  Antibiotic activity against marine bacteria: 3
[1]; strain 1 (Rhodovulum), 25 μg per disc
  zone of inhibition at 25 µg/disc: < 5 mm
[1]; strain 1 (Rhodovulum), 50 μg per disc
  zone of inhibition at 50 µg/disc: < 5 mm
[1]; strain 2 (Erythrobacter), 25 μg per disc
  zone of inhibition at 25 µg/disc: < 5 mm
[1]; strain 2 (Erythrobacter), 50 μg per disc
  zone of inhibition at 50 µg/disc: 10 to 19 mm
[1]; strain 3 (Erythrobacter), 25 μg per disc
  zone of inhibition at 25 µg/disc: 10 to 19 mm
[1]; strain 3 (Erythrobacter), 50 μg per disc
  zone of inhibition at 50 µg/disc: 10 to 19 mm
[1]; strain 4 (Bacillus), 25 μg per disc
  zone of inhibition at 25 µg/disc: 10 to 19 mm
[1]; strain 4 (Bacillus), 50 μg per disc
  zone of inhibition at 50 µg/disc: 10 to 19 mm
[1]; strain 6 (Vibrio), 25 μg per disc
  zone of inhibition at 25 µg/disc: 5 to 9 mm
[1]; strain 6 (Vibrio), 50 μg per disc
  zone of inhibition at 50 µg/disc: 5 to 9 mm
[1]; strain 7 (Vibrio), 25 μg per disc
  zone of inhibition at 25 µg/disc: < 5 mm
[1]; strain 7 (Vibrio), 50 μg per disc
  zone of inhibition at 50 µg/disc: 5 to 9 mm
[1]; strain 8 (Bacillus), 25 μg per disc
  zone of inhibition at 25 µg/disc: 5 to 9 mm
[1]; strain 8 (Bacillus), 50 μg per disc
  zone of inhibition at 50 µg/disc: 10 to 19 mm
[1]; strain 9 (Bacillus), 25 μg per disc
  zone of inhibition at 25 µg/disc: 10 to 19 mm
[1]; strain 9 (Bacillus), 50 μg per disc
  zone of inhibition at 50 µg/disc: 10 to 19 mm
[1]; strain 10 (Halobacillus), 25 μg per disc
  zone of inhibition at 25 µg/disc: 10 to 19 mm
[1]; strain 10 (Halobacillus), 50 μg per disc
  zone of inhibition at 50 µg/disc: 10 to 19 mm
[1]; strain 11 (Pseudomonas), 25 μg per disc
  zone of inhibition at 25 µg/disc: 10 to 19 mm
[1]; strain 11 (Pseudomonas), 50 μg per disc
  zone of inhibition at 50 µg/disc: 10 to 19 mm
[1]; strain 12 (Gordonia), 25 μg per disc
  zone of inhibition at 25 µg/disc: 10 to 19 mm
[1]; strain 12 (Gordonia), 50 μg per disc
  zone of inhibition at 50 µg/disc: 10 to 19 mm
[1]; strain 13 (Bacillus), 25 μg per disc
  zone of inhibition at 25 µg/disc: 10 to 19 mm
[1]; strain 13 (Bacillus), 50 μg per disc
  zone of inhibition at 50 µg/disc: 10 to 19 mm
[1]; strain 14 (Vibrio), 25 μg per disc
  zone of inhibition at 25 µg/disc: < 5 mm
[1]; strain 14 (Vibrio), 50 μg per disc
  zone of inhibition at 50 µg/disc: < 5 mm
[1]; strain 16 (Pseudoalteromonas), 25 μg per disc
  zone of inhibition at 25 µg/disc: 5 to 9 mm
[1]; strain 16 (Pseudoalteromonas), 50 μg per disc
  zone of inhibition at 50 µg/disc: 10 to 19 mm
[1]; strain 17 (Gordonia), 25 μg per disc
  zone of inhibition at 25 µg/disc: 5 to 9 mm
[1]; strain 17 (Gordonia), 50 μg per disc
  zone of inhibition at 50 µg/disc: 10 to 19 mm
[1]; strain 18 (Microbacterium), 25 μg per disc
  zone of inhibition at 25 µg/disc: 10 to 19 mm
[1]; strain 18 (Microbacterium), 50 μg per disc
  zone of inhibition at 50 µg/disc: 10 to 19 mm
[1]; strain 19 (Erythrobacter), 25 μg per disc
  zone of inhibition at 25 µg/disc: 10 to 19 mm
[1]; strain 19 (Erythrobacter), 50 μg per disc
  zone of inhibition at 50 µg/disc: 10 to 19 mm
[1]; strain 20, 25 μg per disc
  zone of inhibition at 25 µg/disc: 10 to 19 mm
[1]; strain 20, 50 μg per disc
  zone of inhibition at 50 µg/disc: 20 to 29 mm
[1]; strain 21, 25 μg per disc
  zone of inhibition at 25 µg/disc: 5 to 9 mm
[1]; strain 21, 50 μg per disc
  zone of inhibition at 50 µg/disc: 5 to 9 mm
[1]; strain 22, 25 μg per disc
  zone of inhibition at 25 µg/disc: 10 to 19 mm
[1]; strain 22, 50 μg per disc
  zone of inhibition at 50 µg/disc: 20 to 29 mm
[1]; strain 24, 25 μg per disc
  zone of inhibition at 25 µg/disc: 10 to 19 mm
[1]; strain 24, 50 μg per disc
  zone of inhibition at 50 µg/disc: 10 to 19 mm
[1]; strain 26, 25 μg per disc
  zone of inhibition at 25 µg/disc: 5 to 9 mm
[1]; strain 26, 50 μg per disc
  zone of inhibition at 50 µg/disc: 10 to 19 mm
[1]; strain 27, 25 μg per disc
  zone of inhibition at 25 µg/disc: 10 to 19 mm
[1]; strain 27, 50 μg per disc
  zone of inhibition at 50 µg/disc: 10 to 19 mm
[1]; strain 28, 25 μg per disc
  zone of inhibition at 25 µg/disc: 5 to 9 mm
[1]; strain 28, 50 μg per disc
  zone of inhibition at 50 µg/disc: 10 to 19 mm
[1]; strain 29, 25 μg per disc
  zone of inhibition at 25 µg/disc: 10 to 19 mm
[1]; strain 29, 50 μg per disc
  zone of inhibition at 50 µg/disc: 10 to 19 mm
[1]; strain 30, 25 μg per disc
  zone of inhibition at 25 µg/disc: 10 to 19 mm
[1]; strain 30, 50 μg per disc
  zone of inhibition at 50 µg/disc: 10 to 19 mm
Barnacle nauplii; 12 h light and 12 h dark, after 4 weeks
  Change in toxicity on ageing in seawater, 12L:12D condition: marked decrease in toxicity
Barnacle nauplii; UV for half an hour
  Effect of UV on drug toxicity to barnacle nauplii: some increase in toxicity
Barnacle nauplii; after 4 weeks
  Change in toxicity on ageing in seawater, dark condition: appreciable decrease in toxicity
[2]; 25 ug ml−1, NTC = untreated polystyrene, TC = tissue-culture treated, strains 4, 9, 14, 20, 27, 28, hydrochloride
  Effect on formation of bacterial biofilms on NTC and TC plates: reduced biofilm formation on NTC plates; also recorded: active against strain 4, 14, 27 on NTC but no reduction of biofilms was observed on the TC plates
[2]; [3]
  Prevention of formation of biofilm: 4
